According to patent US20080031982A1 (Metaproteomics, LLC, priority 2006, published 2008):

Target: T1, IKKβ (Homo sapiens, UniProt O14920)
T1 sequence (O14920 1-756): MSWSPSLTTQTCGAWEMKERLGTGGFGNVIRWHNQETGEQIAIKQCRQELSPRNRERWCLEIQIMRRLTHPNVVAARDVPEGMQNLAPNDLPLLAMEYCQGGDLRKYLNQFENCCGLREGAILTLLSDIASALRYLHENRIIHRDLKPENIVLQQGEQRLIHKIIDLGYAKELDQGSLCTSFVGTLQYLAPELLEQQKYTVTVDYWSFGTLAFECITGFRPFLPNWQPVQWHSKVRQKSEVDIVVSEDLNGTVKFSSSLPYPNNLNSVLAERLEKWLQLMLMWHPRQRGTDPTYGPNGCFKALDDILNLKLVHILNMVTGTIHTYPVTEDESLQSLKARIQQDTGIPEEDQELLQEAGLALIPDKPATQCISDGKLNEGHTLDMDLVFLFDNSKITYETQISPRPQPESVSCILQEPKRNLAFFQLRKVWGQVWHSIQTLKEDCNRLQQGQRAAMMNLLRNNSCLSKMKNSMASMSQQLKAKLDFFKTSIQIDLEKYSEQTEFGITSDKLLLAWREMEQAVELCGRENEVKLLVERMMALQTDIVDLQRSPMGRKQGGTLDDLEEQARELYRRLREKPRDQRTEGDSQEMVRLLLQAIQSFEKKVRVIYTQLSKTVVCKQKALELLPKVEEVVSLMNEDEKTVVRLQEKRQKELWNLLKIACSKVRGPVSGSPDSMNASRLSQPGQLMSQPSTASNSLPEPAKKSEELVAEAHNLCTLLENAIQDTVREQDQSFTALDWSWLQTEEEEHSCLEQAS
Assay: KinaseProfiler Assay

Compound: COc1cc(O)c(CC=C(C)C)c(O)c1C(=O)/C=C/c1ccc(O)cc1 [Xanthohumol, xanthohumol]
- Kinase activity, % of Control (1 ug/ml): 145 % of Control
- Kinase activity, % of Control (5 ug/ml): 118 % of Control
- Kinase activity, % of Control (25 ug/ml): 61 % of Control
- Kinase activity, % of Control (50 ug/ml): 44 % of Control
